Source: US20250214978A1, “AT2R AGONIST” (WUHAN HUMANWELL INNOVATIVE DRUG RESEARCH AND DEVELOPMENT …, priority 2022, published 2025)
Like-named read-outs stand apart in the source and are kept apart here.

What was measured:
Assay type in all cases: in vitro ADME
[1] = Liver microsome stability assay; conditions: dog; Canine liver microsomes; read-out: T1/2 (min) Canine
[2] = Liver microsome stability assay; conditions: Mouse liver microsomes; read-out: T1/2 (min) Mouse
CYP2C8 = CYP2C8 (Homo sapiens (Human), UniProt P10632); assay: CYP inhibition assay in mixed human liver microsomes; conditions: mixed (pooled) human liver microsomes, read-out: Inhibition rate % CYP2C8
Chain of CYP2C8 (P10632 whole entry): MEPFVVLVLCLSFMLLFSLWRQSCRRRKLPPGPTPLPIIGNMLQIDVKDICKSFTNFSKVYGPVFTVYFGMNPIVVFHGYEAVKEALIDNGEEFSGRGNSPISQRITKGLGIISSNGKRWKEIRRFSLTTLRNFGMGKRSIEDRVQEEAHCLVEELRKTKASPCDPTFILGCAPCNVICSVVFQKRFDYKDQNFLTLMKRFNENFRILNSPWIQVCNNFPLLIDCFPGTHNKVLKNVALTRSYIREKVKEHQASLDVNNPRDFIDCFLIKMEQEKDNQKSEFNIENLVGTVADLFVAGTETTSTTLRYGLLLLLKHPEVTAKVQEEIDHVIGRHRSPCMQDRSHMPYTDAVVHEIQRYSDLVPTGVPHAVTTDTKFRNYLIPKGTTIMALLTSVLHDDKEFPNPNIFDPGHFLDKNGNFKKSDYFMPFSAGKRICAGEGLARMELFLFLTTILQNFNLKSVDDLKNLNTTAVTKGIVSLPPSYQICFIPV
Method: The inhibitory effects of the compounds on seven enzymes, i.e., CYP1A2, CYP2C9, CYP2C19, CYP2D6, CYP3A4 (midazolam), CYP2B6, and CYP2C8, were evaluated at a concentration of 10 μM. Mixed human liver microsomes, which were previously stored in a −80° C. refrigerator before use, were taken out and thawed in a water bath at 37° C. before use, and placed on ice for further operation. 100 μL of microsome working solution was taken, and added with 2 μL of test product or positive inhibitor working solution. 2 μL of solvent was added to the solvent control. The mixture was pre-incubated in a water bath at 37° C. for 10 minutes. After preincubation, 98 μL of NADPH regeneration solution was added to all samples to initiate the reaction. Then, the samples were put back into the water bath and incubated for a period of time. The reaction was quenched with 200 μL of stop solution. The plate was centrifuged at 3,220 g for 10 minutes, 100 μL of supernatant was transferred, and 100 μL of water was added and mixed well to the assay plate for LC/MS/MS analysis.

Caco-2 cells = assay: Bidirectional permeability study in CACO-2 cells; conditions: Caco-2 monolayer, 2.00 μM, 2 hours, pH 7.40
Method: Caco-2 cells were inoculated onto polyethylene membrane (PET) in 96-well inserted plates at a rate of 1×10^5 cells/cm^2, and the medium was changed every 4 to 5 days until day 21 to 28, to form a fused cell monolayer. The transport buffer in the assay was HBSS and 10.0 mM HEPES, with a pH of 7.40±0.05. The test compounds were subjected to a bidirectional test at 2.00 μM in the presence and absence of GF120918 (10.0 μM). Digoxin was subjected to a bidirectional test at 10.0 μM in the presence and absence of GF120918 (10.0 μM), while Nadolol and Metoprolol were subjected to a test from direction A to direction B at 2.00 μM in the absence of GF120918 (10.0 μM). The above tests were performed in duplicate. The final concentration of DMSO was adjusted to be lower than 1%. The plate was incubated in a CO2 incubator at 37° C.±1° C. for 2 hours, and 5% CO2 was added under saturated humidity without shaking. All the samples, after being mixed with acetonitrile containing internal standard, were centrifuged at 3,200 g for 10 minutes. […] The concentrations of the test compounds and control compounds in the starting solution, the donor solution, and the acceptor solution were quantified by LC-MS/MS based on a peak area ratio of the analyte to the internal standard.
After the transport assay, the integrity of the Caco-2 cell monolayer was determined using Lucifer Yellow Exclusion Assay.

[3] = Liver microsome stability assay; conditions: Rat liver microsomes; read-out: T1/2 (min) Rat
[4] = Free plasma protein binding (PPB) assay, equilibrium dialysis; conditions: dialysis 6 hours at 37° C.
Method: The dried dialysis membrane was soaked in ultrapure water for 1 hour, then soaked in 20% ethanol for 20 minutes, and then rinsed with ultrapure water for 2 to 3 times. Finally, the dried dialysis membrane was soaked in ultrapure water for 20 minutes for later use. The frozen plasma was thawed in a water bath at 37° C. for about 20 minutes. pH value of the plasma was measured after thawing was complete, and was adjusted to 7.4 with 1% phosphoric acid solution or 0.1M sodium hydroxide solution. […] The pretreated dialysis membrane was assembled into the dialysis plate according to product instructions, and 100 μL of receiving solution (100 mM phosphate buffer solution plus 0.002% Tween 80) was added to one side of the permeable membrane in each dialysis well. 20 μL of each of the final solution of the test compound and the final solution of the control compound were taken in a 96-well sample plate, two duplicate samples were made, and T0 sample was obtained, which was stored in a −20° C. refrigerator. Another 100 μL of each of the above-mentioned final solutions were taken to the other side of the membrane in the dialysis device, two duplicate samples were made, and incubated at 37° C. with constant shaking for 6 hours. After 6 hours of incubation, 20 μL of each of the dialyzed receiving solution and the administered plasma were taken, two duplicate samples were made, and sample A and sample B were obtained. Corresponding blank plasma or receiving solution of corresponding volume were added to sample B and sample A, respectively, allowing the volume ratio of plasma to buffer in each sample well to be 1:1. 300 μL of sample-containing internal standard acetonitrile solution was added to all the sample wells. The mixture was mixed well, and centrifuged at 5,500×g for 10 minutes. 150 μL of corresponding ultrapure water was added to the corresponding sample wells of the 96-well sample plate. 150 μL of the supernatant was taken into the sample wells, and mixed well. Then, LC/MS/MS analysis was performed. The calculation formula of fu is: […]
where: CR: peak area ratio measured in the receiving chamber well CD: peak area ratio measured in the supply chamber well.

half-life at 1 μM [1]: 224 min
half-life at 1 μM [2]: 49.1 min
inhibition at 10 µM (CYP2C8): 97.5%
Papp mean value (10^−6 cm/s) A to B (Caco-2 cells): 0.381 10^−6 cm/s
half-life at 1 μM [3]: 22.6 min
fraction unbound at 6 h, 1 μM ([4]; dog, pH 7.4, Canine plasma, read-out: fu % Canine): 0.0023
fraction unbound at 6 h, 1 μM ([4]; pH 7.4, Human plasma, read-out: fu % Human): 0.0006
fraction unbound at 6 h, 1 μM ([4]; pH 7.4, Mouse plasma, read-out: fu % Mouse): 0.0009
fraction unbound at 6 h, 1 μM ([4]; pH 7.4, Rat plasma, read-out: fu % Rat): 0.0005
SMILES: CCCCOC(=O)NS(=O)(=O)c1sc(CC(C)C)cc1-c1ccc(Cn2ccnc2)cc1 [Control Compound I, reference compound]
